Source: PMC12391391, “The balance between B55α and Greatwall expression levels predicts sensitivity to Greatwall inhibition in cancer cells” (Nature Communications, 2025)

Legend:
Test in all cases: biochemical
Parameters in all cases: LanthaScreen kinase activity assay (Thermo Fisher), dose-dependent inhibition by C-604
Details in all cases: read-out: IC50 (C-604)
MAP3K7 = target: T1, MAP3K7 (Homo sapiens, UniProt O43318)
T1 sequence (O43318 1-606): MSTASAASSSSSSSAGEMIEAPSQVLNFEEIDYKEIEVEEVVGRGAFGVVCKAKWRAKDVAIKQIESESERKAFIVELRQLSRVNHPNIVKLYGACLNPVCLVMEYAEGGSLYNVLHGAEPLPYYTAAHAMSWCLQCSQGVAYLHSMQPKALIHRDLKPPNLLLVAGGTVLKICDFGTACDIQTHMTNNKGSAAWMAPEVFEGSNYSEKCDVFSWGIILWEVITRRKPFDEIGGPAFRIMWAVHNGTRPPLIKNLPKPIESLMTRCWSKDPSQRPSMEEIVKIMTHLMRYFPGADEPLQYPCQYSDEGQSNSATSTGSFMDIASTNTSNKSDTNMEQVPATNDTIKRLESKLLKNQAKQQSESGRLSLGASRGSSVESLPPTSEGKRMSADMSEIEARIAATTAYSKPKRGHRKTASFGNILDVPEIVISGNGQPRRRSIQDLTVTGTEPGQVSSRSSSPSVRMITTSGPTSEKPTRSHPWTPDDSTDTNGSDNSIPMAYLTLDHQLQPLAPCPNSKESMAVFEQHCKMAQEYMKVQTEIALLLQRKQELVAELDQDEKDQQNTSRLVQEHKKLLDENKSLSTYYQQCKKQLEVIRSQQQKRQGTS
Procedure: (§1) To identify potential C-604 off-targets, we utilised a commercially available off-target screening service (Thermo Fisher Scientific) to assess the impact of C-604 on the in vitro activity of 100 human kinases (Supplementary Fig. 8a). Out of 100 tested targets, C-604 (1 µM) inhibited GWL (inhibition 95%) and an additional 10 kinases (inhibition ≥ 80%). […] The in vitro off-target effects of compound C-604 were determined by assessing its inhibitory potential in a panel of 100 human kinases using the LanthaScreen Kinase Activity Assay (Thermo Fisher Scientific).

STK17A = target: T2, STK17A (Homo sapiens, UniProt Q9UEE5)
T2 sequence (Q9UEE5 1-414): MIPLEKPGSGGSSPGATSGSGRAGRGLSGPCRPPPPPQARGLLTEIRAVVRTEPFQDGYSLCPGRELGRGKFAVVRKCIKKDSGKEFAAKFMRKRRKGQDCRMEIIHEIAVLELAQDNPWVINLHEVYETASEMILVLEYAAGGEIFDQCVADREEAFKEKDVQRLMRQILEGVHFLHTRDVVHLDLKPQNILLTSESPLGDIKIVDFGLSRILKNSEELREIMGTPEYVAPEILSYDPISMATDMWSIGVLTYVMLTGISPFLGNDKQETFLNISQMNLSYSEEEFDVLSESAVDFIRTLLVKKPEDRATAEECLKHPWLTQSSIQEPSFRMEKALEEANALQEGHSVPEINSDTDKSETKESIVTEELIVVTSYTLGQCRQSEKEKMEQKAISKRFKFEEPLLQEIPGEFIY
Procedure: as §1

NUAK1 = target: T3, NUAK1 (Homo sapiens, UniProt O60285)
T3 sequence (O60285 1-661): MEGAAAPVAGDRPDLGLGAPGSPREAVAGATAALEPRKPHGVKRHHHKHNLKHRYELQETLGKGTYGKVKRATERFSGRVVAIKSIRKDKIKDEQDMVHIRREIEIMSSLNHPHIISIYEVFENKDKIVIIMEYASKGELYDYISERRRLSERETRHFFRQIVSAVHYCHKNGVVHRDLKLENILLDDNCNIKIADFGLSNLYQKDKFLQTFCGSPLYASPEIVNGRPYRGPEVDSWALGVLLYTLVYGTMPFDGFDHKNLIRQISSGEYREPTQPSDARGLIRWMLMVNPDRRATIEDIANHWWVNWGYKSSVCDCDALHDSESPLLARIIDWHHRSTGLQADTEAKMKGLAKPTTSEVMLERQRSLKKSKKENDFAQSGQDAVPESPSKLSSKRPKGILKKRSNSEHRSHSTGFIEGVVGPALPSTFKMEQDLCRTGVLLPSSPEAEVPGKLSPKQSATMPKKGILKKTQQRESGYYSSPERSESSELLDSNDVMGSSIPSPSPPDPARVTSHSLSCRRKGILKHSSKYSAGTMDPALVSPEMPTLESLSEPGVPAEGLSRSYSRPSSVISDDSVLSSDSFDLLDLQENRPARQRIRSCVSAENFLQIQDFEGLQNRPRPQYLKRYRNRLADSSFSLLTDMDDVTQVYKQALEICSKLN
Procedure: as §1

PRKD2 = target: T4, PRKD2 (Homo sapiens, UniProt Q9BZL6)
T4 sequence (Q9BZL6 1-878): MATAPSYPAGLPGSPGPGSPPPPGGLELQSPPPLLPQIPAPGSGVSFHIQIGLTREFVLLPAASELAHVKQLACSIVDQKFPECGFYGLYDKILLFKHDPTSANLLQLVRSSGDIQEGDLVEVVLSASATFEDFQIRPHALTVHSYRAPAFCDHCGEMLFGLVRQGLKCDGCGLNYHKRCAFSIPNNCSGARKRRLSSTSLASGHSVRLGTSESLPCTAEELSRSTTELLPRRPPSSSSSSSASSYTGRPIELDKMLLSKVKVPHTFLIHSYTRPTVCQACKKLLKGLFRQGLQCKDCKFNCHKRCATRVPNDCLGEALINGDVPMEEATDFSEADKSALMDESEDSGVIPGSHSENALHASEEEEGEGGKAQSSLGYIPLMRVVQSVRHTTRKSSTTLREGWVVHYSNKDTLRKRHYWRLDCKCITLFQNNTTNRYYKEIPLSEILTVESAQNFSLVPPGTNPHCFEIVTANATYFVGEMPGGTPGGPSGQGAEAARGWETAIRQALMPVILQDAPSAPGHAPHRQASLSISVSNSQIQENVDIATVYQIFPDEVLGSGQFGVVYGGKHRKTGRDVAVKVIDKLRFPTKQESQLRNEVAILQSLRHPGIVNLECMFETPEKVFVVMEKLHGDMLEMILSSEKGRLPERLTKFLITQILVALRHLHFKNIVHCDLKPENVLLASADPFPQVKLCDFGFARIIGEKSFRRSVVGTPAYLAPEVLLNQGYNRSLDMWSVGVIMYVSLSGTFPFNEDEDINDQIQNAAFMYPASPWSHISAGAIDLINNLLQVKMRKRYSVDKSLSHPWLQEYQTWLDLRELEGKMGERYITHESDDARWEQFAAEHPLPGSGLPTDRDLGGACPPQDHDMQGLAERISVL
Procedure: as §1

IC50 (MAP3K7): 126 nM
IC50 (STK17A): 154 nM
IC50 (NUAK1): 10.1 nM
IC50 (PRKD2): 373 nM
SMILES: CNC(=O)c1c[nH]c2ncc(-c3ccc(OCCN4CCC(c5ccccc5)C4)cc3)nc12 (racemic) [compound 21, C-604]
